Data reported in ChEMBL document CHEMBL1201861, “Genomics of Drug Sensitity in Cancer screening data, Wellcome Trust Sanger Institute”.

How the values were obtained:
DG-75 = test: cells; assay type: functional, cell-based, Homo sapiens; details: Homo sapiens, DG-75;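 also: growth inhibition of DG-75 cells, read out with a cell viability assay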
Description: SANGER: Inhibition of human DG-75 cell growth in a cell viability assay.

ECC4 = test: cells; assay type: functional, cell-based, Homo sapiens; details: Homo sapiens, ECC4;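 also: growth inhibition of ECC4 cells, read out with a cell viability assay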
Description: SANGER: Inhibition of human ECC4 cell growth in a cell viability assay.

K052 = test: cells; assay type: functional, cell-based, Homo sapiens; details: Homo sapiens, K052;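 also: Read-out from a cell viability assay, IC50 reflecting suppression of K052 cell growth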
Description: SANGER: Inhibition of human K052 cell growth in a cell viability assay.

KMOE-2 = test: cells; assay type: functional, cell-based, Homo sapiens; details: Homo sapiens, KMOE-2;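 also: growth inhibition of human KMOE-2 cells, read out with a cell viability assay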
Description: SANGER: Inhibition of human KMOE-2 cell growth in a cell viability assay.

LB647-SCLC = test: cells; assay type: functional, cell-based, Homo sapiens; details: Homo sapiens, LB647-SCLC;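 also: cell growth inhibition, read out by a viability assay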
Description: SANGER: Inhibition of human LB647-SCLC cell growth in a cell viability assay.

LC-1F = test: cells; assay type: functional, cell-based, Homo sapiens; details: Homo sapiens, LC-1F;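 also: growth inhibition of human LC-1F cells, read out with a cell viability assay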
Description: SANGER: Inhibition of human LC-1F cell growth in a cell viability assay.

LC4-1 = test: cells; assay type: functional, cell-based, Homo sapiens; details: Homo sapiens, LC4-1;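 also: growth inhibition of LC4-1 cells, read out with a cell viability assay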
Description: SANGER: Inhibition of human LC4-1 cell growth in a cell viability assay.

LOUCY = test: cells; assay type: functional, cell-based, Homo sapiens; details: Homo sapiens, LOUCY;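 also: growth inhibition of human LOUCY cells, read out with a cell viability assay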
Description: SANGER: Inhibition of human LOUCY cell growth in a cell viability assay.

MDA-MB-134-VI = test: cells; assay type: functional, cell-based, Homo sapiens; details: Homo sapiens, MDA-MB-134-VI
Description: SANGER: Inhibition of human MDA-MB-134-VI cell growth in a cell viability assay.

MONO-MAC-6 = test: cells; assay type: functional, cell-based, Homo sapiens; details: Homo sapiens, MONO-MAC-6;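 also: cell viability assay measuring growth inhibition of human MONO-MAC-6 cells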
Description: SANGER: Inhibition of human MONO-MAC-6 cell growth in a cell viability assay.

NB14 = test: cells; assay type: functional, cell-based, Homo sapiens; details: Homo sapiens, NB14;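 also: growth inhibition of NB14 cells measured with a cell viability assay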
Description: SANGER: Inhibition of human NB14 cell growth in a cell viability assay.

NCI-H1522 = test: cells; assay type: functional, cell-based, Homo sapiens; details: Homo sapiens, NCI-H1522;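 also: growth inhibition of NCI-H1522 cells, read out with a cell viability assay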
Description: SANGER: Inhibition of human NCI-H1522 cell growth in a cell viability assay.

NCI-H64 = test: cells; assay type: functional, cell-based, Homo sapiens; details: Homo sapiens, NCI-H64;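 also: growth inhibition of NCI-H64 cells, read out with a cell viability assay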
Description: SANGER: Inhibition of human NCI-H64 cell growth in a cell viability assay.

Raji = test: cells; assay type: functional, cell-based, Homo sapiens; details: Homo sapiens, Raji;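 also: cell viability assay measuring inhibition of Raji cell growth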
Description: SANGER: Inhibition of human Raji cell growth in a cell viability assay.

SCC-3 = test: cells; assay type: functional, cell-based, Homo sapiens; details: Homo sapiens, SCC-3;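 also: cell viability assay measuring inhibition of SCC-3 cell growth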
Description: SANGER: Inhibition of human SCC-3 cell growth in a cell viability assay.

ARH-77 = test: cells; assay type: functional, cell-based, Homo sapiens; details: Homo sapiens, ARH-77;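 also: growth inhibition of ARH-77 cells, read out by a cell viability assay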
Description: SANGER: Inhibition of human ARH-77 cell growth in a cell viability assay.

BC1 cell line = test: SANGER: Inhibition of human BC-1 cell growth in a cell viability assay.; assay type: functional, cell-based; details: Homo sapiens, BC1
BOKU = test: cells; assay type: functional, cell-based; details: Homo sapiens;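 also: growth inhibition of the human BOKU cell line, read out by a cell viability assay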
Description: SANGER: Inhibition of human BOKU cell growth in a cell viability assay.

TE-441-T = test: cells; assay type: functional, cell-based, Homo sapiens; details: Homo sapiens, TE-441-T
Description: SANGER: Inhibition of human TE-441-T cell growth in a cell viability assay.

THP-1 = test: cells; assay type: functional, cell-based, Homo sapiens; details: Homo sapiens, THP-1;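 also: growth inhibition of THP-1 cells, read out via a cell viability assay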
Description: SANGER: Inhibition of human THP-1 cell growth in a cell viability assay.

CESS = test: SANGER: Inhibition of human CESS cell growth in a cell viability assay.; assay type: functional, cell-based; details: Homo sapiens, CESS

Compound	IC50 (DG-75)	IC50 (ECC4)	IC50 (K052)	IC50 (KMOE-2)	IC50 (LB647-SCLC)	IC50 (LC-1F)	IC50 (LC4-1)	IC50 (LOUCY)	IC50 (MDA-MB-134-VI)	IC50 (MONO-MAC-6)	IC50 (NB14)	IC50 (NCI-H1522)	IC50 (NCI-H64)	IC50 (Raji)	IC50 (SCC-3)	IC50 (ARH-77)	IC50 (BC1 cell line)	IC50 (TE-441-T)	IC50 (THP-1)	IC50 (CESS)	other results
C=CC(=O)N1CCCC(Nc2nc(Nc3ccc(N(C)C(=O)CC)cc3)nc3[nH]cnc23)C1 (configuration not stated)	> 10.2 µM	> 10.2 µM	> 10.2 µM	> 10.2 µM	> 10.2 µM	> 10.2 µM	> 10.2 µM	> 10.2 µM	> 10.2 µM	> 10.2 µM	> 10.2 µM	> 10.2 µM	> 10.2 µM	> 10.2 µM	> 10.2 µM	> 10.2 µM	> 10.2 µM	> 10.2 µM	> 10.2 µM	> 10.2 µM	IC50 (BOKU): > 10.2 µM
COc1ccc(N(C(=O)Oc2c(C)cccc2C)c2ccnc(Nc3ccc(N4CCN(C)CC4)cc3)n2)c(OC)c1	> 5.12 µM	> 5.12 µM	> 5.12 µM	> 5.12 µM	> 5.12 µM	> 5.12 µM	> 5.12 µM	> 5.12 µM	> 5.12 µM	> 5.12 µM	> 5.12 µM	> 5.12 µM	> 5.12 µM	> 5.12 µM	> 5.12 µM	> 5.12 µM	> 5.12 µM	> 5.12 µM	> 5.12 µM	> 5.12 µM	IC50 (BOKU): 1.81 µM
NC(=O)c1cccc(-c2cc(Nc3ccc(OC(F)(F)F)cc3)ncn2)c1	> 1.28 µM	> 1.28 µM	> 1.28 µM	> 1.28 µM	> 1.28 µM	> 1.28 µM	> 1.28 µM	> 1.28 µM	> 1.28 µM	> 1.28 µM	> 1.28 µM	> 1.28 µM	> 1.28 µM	> 1.28 µM	> 1.28 µM	> 1.28 µM	> 1.28 µM	> 1.28 µM	> 1.28 µM	> 1.28 µM	IC50 (BOKU): > 1.28 µM
CC(C)C[C@H](NC(=O)[C@H](Cc1ccccc1)NC(=O)c1cnccn1)B(O)O [BORTEZOMIB]	0.0186 µM	> 0.02 µM		0.00223 µM	0.00422 µM	0.00374 µM	0.00179 µM	0.000293 µM	> 0.02 µM	0.0031 µM	0.018 µM	> 0.02 µM	0.00244 µM	0.00446 µM	0.00237 µM	0.00238 µM	0.00231 µM	> 0.02 µM	> 0.02 µM	0.000538 µM	
